Assay results: patent publication US20100016388A1, “Salts of a Selective Beta-2 Andrenoceptor Agonist” (priority 2007, published 2010)
Counter-ions that a name gives are not always drawn.

Target: T1, Adrenergic β2 (Homo sapiens, UniProt P07550)
T1 construct: Adherent H292 cells were removed from tissue culture flasks; endogenous in cells; host or cells: H292 cells
Experiment: Adrenergic β2 mediated cAMP production in H292 cells (AlphaScreen)
Format: cell-based
Details: Intrinsic Activity as a fraction relative to the maximum activity determined for formoterol
Protocol: Adrenergic β2 Mediated cAMP Production
H292 cells were grown in 225 cm2 flasks incubator at 37° C., 5% CO2 in RPMI medium containing, 10% (v/v) FBS (foetal bovine serum) and 2 mM L-glutamine.
Adherent H292 cells were removed from tissue culture flasks by treatment with Accutase™ cell detachment solution for 15 minutes. Flasks were incubated for 15 minutes in a humidified incubator at 37° C., 5% CO2. Detached cells were re-suspended in RPMI media (containing 10% (v/v) FBS and 2 mM L-glutamine) at 0.05×10^6 cells per mL. 5000 cells in 100 μL were added to each well of a tissue-culture-treated 96-well plate and the cells incubated overnight in a humidified incubator at 37° C., 5% CO2. The culture media was removed and cells were washed twice with 100 μL assay buffer and replaced with 50 μL assay buffer (HBSS solution containing 10 mM HEPES pH7.4 and 5 mM glucose). […]
The concentration of cAMP (cyclic adenosine monophosphate) in the cell lysate was determined using AlphaScreen™ methodology. […] The AlphaScreen™ signal was measured using an EnVision spectrophotometer (Perkin-Elmer Inc.) with the recommended manufacturer's settings. cAMP concentrations were determined by reference to a calibration curve determined in the same experiment using standard cAMP concentrations. […] Intrinsic Activity was expressed as a fraction relative to the maximum activity determined for formoterol in each experiment.

T1 sequence (P07550 whole entry): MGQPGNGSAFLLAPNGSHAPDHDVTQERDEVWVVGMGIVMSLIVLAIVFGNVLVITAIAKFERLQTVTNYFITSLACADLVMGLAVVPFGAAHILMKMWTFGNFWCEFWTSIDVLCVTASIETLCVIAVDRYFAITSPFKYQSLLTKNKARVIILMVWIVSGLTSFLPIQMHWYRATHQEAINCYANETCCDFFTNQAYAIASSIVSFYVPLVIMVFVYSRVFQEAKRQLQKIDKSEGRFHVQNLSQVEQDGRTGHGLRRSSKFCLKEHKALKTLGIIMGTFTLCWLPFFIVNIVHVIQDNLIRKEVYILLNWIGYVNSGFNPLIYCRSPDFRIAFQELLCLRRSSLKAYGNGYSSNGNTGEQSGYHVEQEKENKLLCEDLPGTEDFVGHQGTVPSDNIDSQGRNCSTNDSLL

With O=c1[nH]c2c(O)ccc([C@@H](O)CNCCSCCCNCCc3ccccc3Cl)c2s1 [Compound A, 7-[(1R)-2-({2-[(3-{[2-(2-Chlorophenyl)ethyl]amino}-propyl)thio]ethyl}amino)-1-hydroxyethyl]-4-hydroxy-1,3-benzothiazol-2(3H)-one dihydrobromide] the “β2 Int Act” value was 0.8.
